Tested on: P1 receptor
Assay: P1 receptor binding studies (A1, A2A, A2B and A3), overall statement
Set-up: species or system human
Settings: all four subtypes
Method: A1 Receptor: Membrane aliquots containing 5 µg (CHOhA1R) protein were incubated in a total volume of 100 µL assay buffer (50 mM Tris-HCl, pH 7.4) at 25 °C for 1 h. […] Nonspecific binding was determined in the presence of 100 µM N^6-cyclopentyladenosine (CPA). Incubations were terminated by rapid vacuum filtration to separate the bound and free radioligand through prewetted 96-well GF/B filter plates using a PerkinElmer Filtermate-harvester (Perkin Elmer, Groningen, the Netherlands). Filters were subsequently washed 12 times with ice-cold 50 mM Tris-HCl, pH 7.4.
Nonspecific binding was determined in the presence of 100 µM adenosine-5-N-ethyluronamide (NECA). Incubations were terminated by rapid vacuum filtration to separate the bound and free radioligand through prewetted 96-well GF/B filter plates using a PerkinElmer Filtermate-harvester (Perkin Elmer, Groningen, The Netherlands). Filters were subsequently washed 12 times with ice-cold 50 mM Tris-HCl, pH 7.4.
A2B Receptor: Membrane aliquots containing 30 µg (CHO-spap-hA2BR) total protein were incubated in a total volume of 100 µL assay buffer (0.1% CHAPS in 50 mM TrisHCl, pH 7.4) at 25 °C for 2 h. […] Nonspecific binding was determined in the presence of 10 µM ZM241385. Incubations were terminated by rapid vacuum filtration to separate the bound and free radioligand through prewetted 96-well GF/B filter plates using a PerkinElmer Filtermate-harvester (Perkin Elmer, Groningen, the Netherlands). Filters were subsequently washed 12 times with ice-cold 0.1% BSA in 50 mM Tris-HCl, pH 7.4.
A3 Receptor: Membrane aliquots containing 15 µg (CHOhA3R) total protein were incubated in a total volume of 100 µL assay buffer (50 mM Tris-HCl, pH 8.0, supplemented with 10 mM MgCl2, 1 mM EDTA and 0.01% (w/v) CHAPS) at 25 °C for 2 h. […] Nonspecific binding was determined in the presence of 100 µM NECA. […]
All experimental data were analyzed using the non-linear regression curve fitting program GraphPad Prism 7.0 (GraphPad Software Inc., San Diego, CA, USA). […]

SMILES | P1 receptor affinity
Nc1cc(Cl)c2ncn([C@H]3[C@H](O)[C@H](O)[C@]4(CO)C[C@H]34)c2n1 [Compound 11, (1R,2R,3S,4R,5S)-4-(5-Amino-7-chloro-3H-imidazo[4,5-b]pyridin-3-yl)-1-(hydroxymethyl)bicyclo[3.1.0]hexane-2,3-diol] | no P1 receptor affinity
OC[C@@]12C[C@@H]1[C@@H](n1cnc3c(Cl)cc(Cl)nc31)[C@H](O)[C@@H]2O [Compound 12, (1R,2R,3S,4R,5S)-4-(5,7-Dichloro-3H-imidazo[4,5-b]pyridin-3-yl)-1-(hydroxymethyl)bicyclo[3.1.0]hexane-2,3-diol] | no P1 receptor affinity
CSc1cc(N)c2ncn([C@H]3[C@H](O)[C@H](O)[C@]4(CO)C[C@H]34)c2n1 [Compound 17, (1R,2R,3S,4R,5S)-4-(7-Amino-5-methylthio-3H-imidazo[4,5-b]pyridin-3-yl)-1-(hydroxymethyl)bicyclo[3.1.0]hexane-2,3-diol] | loss of P1 receptor affinity

From PMC9000336, “Development of Bicyclo[3.1.0]hexane-Based A3 Receptor Ligands: Closing the Gaps in the Structure–Affinity Relationships” (Molecules, 2022)
